Experimental data: patent US5405839A, “Vitamin B12 derivative, preparation process thereof, and use thereof” (Teijin Limited, priority 1989, dated 1995)

Legend:
diol dehydrase [1] = molecular target: T1, diol dehydrase (Klebsiella oxytoca, UniProt Q59470+Q59471+Q59472); test: Assay of coenzyme activity (kcat) with diol dehydrase; type: biochemical, Klebsiella pneumoniae ATCC 8724; settings: for coenzyme activity (in words): diol dehydrase; for Kcat (coenzyme activity): diol dehydrase, 1,2-propanediol substrate, 37° C., pH 8.0; method 1) or 2); for Kcat, activity relative to the vitamin B12 coenzyme (adenosylcobalamin): relative to adenosylcobalamin = 100
T1 construct: (alpha beta gamma)2 hexamer
T1 sequence (Q59470 1-554): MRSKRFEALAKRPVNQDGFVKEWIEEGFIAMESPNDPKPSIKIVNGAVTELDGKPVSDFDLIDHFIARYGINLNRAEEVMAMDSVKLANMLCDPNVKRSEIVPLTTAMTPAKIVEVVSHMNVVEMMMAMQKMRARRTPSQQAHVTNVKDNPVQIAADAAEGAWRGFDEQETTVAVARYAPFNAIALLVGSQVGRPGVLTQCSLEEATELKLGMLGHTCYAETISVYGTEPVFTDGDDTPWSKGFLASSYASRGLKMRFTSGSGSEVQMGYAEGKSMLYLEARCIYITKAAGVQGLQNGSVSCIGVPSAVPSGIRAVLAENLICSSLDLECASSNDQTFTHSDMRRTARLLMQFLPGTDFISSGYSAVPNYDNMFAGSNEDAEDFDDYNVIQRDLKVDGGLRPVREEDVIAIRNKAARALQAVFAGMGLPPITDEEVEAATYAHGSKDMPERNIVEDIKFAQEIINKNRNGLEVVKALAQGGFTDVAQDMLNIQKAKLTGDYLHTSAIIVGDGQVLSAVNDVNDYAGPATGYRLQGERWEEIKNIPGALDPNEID
T1 sequence (Q59471 1-224): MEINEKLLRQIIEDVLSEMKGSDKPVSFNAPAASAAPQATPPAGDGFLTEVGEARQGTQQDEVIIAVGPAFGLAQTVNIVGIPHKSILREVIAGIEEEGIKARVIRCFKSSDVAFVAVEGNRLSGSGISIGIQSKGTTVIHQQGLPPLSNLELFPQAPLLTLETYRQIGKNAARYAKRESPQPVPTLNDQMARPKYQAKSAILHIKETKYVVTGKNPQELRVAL
T1 sequence (Q59472 1-173): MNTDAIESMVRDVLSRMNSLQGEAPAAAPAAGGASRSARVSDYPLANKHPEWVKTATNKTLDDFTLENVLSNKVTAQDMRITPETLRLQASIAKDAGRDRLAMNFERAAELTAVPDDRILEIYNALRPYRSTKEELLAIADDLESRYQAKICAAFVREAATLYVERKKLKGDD
Experimental: The coenzyme activities of vitamin B12 derivatives prepared in Examples 1 to 10 were assayed according to the two methods shown below.
1) Assay of coenzyme activity by using 3-methyl-2-benzothiazolinonehydrazone
The assay was carried out according to the method of Toraya et al. (J. Biol. Chem., vol. 252, p. 963-970, 1977).
(§1) As the enzyme, diol dehydrase was employed. […] Diol dehydrase was highly purified from Klebsiella pneumoniae ATCC 8724 according to the method of Poznanskaya (Arch. Biochem. Biophys., vol. 194, p. 379-386, 1979) and adjusted to a solution of 0.3 Unit/ml with 0.05 M potassium phosphate buffer (pH 8.0). As the substrate of this enzyme, a 1 M aqueous 1,2-propanediol solution was employed.
(§2) In an ice-water bath, 0.1 ml of the substrate solution, 0.1 ml of 0.5 M aqueous potassium chloride solution, 0.1 ml of diol dehydrase solution, and 0.6 ml of 0.05 M potassium phosphate buffer (pH 8.0) were mixed, and to the mixture were added, in the dark, 0.1 ml of 0.2 mM vitamin B12 coenzyme (adenosylcobalamin), vitamin B12 (cyanocobalamin) or each vitamin B12 derivative prepared in Examples 1 to 10. After the mixture was incubated in the dark at 37° C. for 10 minutes, 1 ml of 0.1M potassium citrate buffer (pH 3.6) was added to stop the enzyme reaction, and then 0.5 ml of 0.1% aqueous 3-methyl-2-benzothianolinonehydrazone was added, followed by a continuation of the incubation at 37° C. for 15 minutes. To the mixture was added 1 ml of water, and the absorbance at 305 nm was measured by a Shimazu Double-beam Spectrophotometer Model UV-140-02 Model and the coenzyme activity (kcat) was calculated.
2) Assay of coenzyme activity using alcohol dehydrogenase and reduced nicotinamide adenine dinucleotide
The assay was carried out according to the method of Toraya et al. (Biochemistry, vol. 18, p. 417-426, 1979).
The diol dehydrase employed was diluted with 0.05 M potassium phosphate buffer (pH 8.0) to 0.15 Unit/ml, and 1M aqueous propanediol was used as the substrate solution. By using a 0.05 M potassium phosphate buffer (pH 8.0), 0.5 mg/ml of alcohol dehydrogenase and a 2 mM reduced nicotinamide adenine dinucleotide were prepared. To a mixture of 0.1 ml of the substrate solution, 0.1 ml of the alcohol dehydrogenase solution, 0.1 ml of the reduced nicotinamide adenine dinucleotide solution, and 0.5 ml of the 0.05 M potassium phosphate buffer (pH 8.0) was added 0.1 ml of the diol dehydrase solution. After the mixture was incubated at 37° C. for 5 minutes, there were added, in the dark, 0.1 ml of 0.2 mM vitamin B12 coenzyme (adenosylcobalamin), vitamin B12 (cyanocobalamin) or each vitamin B12 derivative prepared in Examples 1 to 10, and the coenzyme activity (kcat) was calculated by continuously monitoring the decrease in absorbance at 340 nm, by a Union Spectrophotometer SM-401.
The coenzyme activity is higher when the kcat is larger. The activity relative to the vitamin B12 coenzyme (adenosylcobalamin) is also shown in % in Table 1.

diol dehydrase [2] = molecular target: T1, diol dehydrase; test: Inhibition constant (Ki) of vitamin B12 derivative against vitamin B12 coenzyme, Lineweaver-Burk plot; type: biochemical; settings: against varied adenosylcobalamin
Experimental: as §1, §2
Namely, in the method 1) in Example 11, by adding adequately varied concentration of the vitamin B12 coenzyme (adenosylcobalamin) to a fixed concentration of each vitamin B12 derivative, the enzyme activity was respectively assayed and the inhibition constant (Ki) was determined by the Lineweaver-Burk plot. The inhibitory activity is stronger when the Ki is smaller.

diol dehydrase [3] = molecular target: T1, diol dehydrase; test: Michaelis constant (Km) of vitamin B12 derivative, Lineweaver-Burk plot; type: biochemical, Klebsiella pneumoniae ATCC 8724
Experimental: as §1, §2
Namely, in the method 1) in Example 11, the respective enzyme activities were assayed by suitably varying the concentration of the vitamin B12 derivative, and Michaelis constant (km) was determined by the Lineweaver Burk plot. The affinity (binding ability) for the enzyme is higher when the Km is smaller.

[4] = system: mouse leukemia L1210 cells; test: Viability of cultured L1210 cells on day 9 by Trypan blue staining; type: cell-based; settings: day 9, MTX 200 nM only; 12960 min
Experimental: The mouse leukemia L1210 cells employed for this experiment were grown and maintained intraperitoneally in DBA mice, taken out together with ascites and aseptically cultured as adapted for RPMI-1640 medium for animal cell culture supplemented with fetal bovine serum (5 v/v %) and ethanolamine (1.2 mg/liter), but devoid of vitamin B12 (cyanocobalamin). Also, 100,000 units of penicillin and 100 mg of streptomycin were added as the antimicrobial agent, per liter of this medium. The L1210 cells grown and adapted in vitro were further adapted to the above-mentioned medium containing 7.0 g/liter of bovine serum albumin in place of the fetal bovine serum, following the method of Fujii et al. (J. Biol. Chem., vol. 256, p. 10329-10334, 1981), and then used for experiment.
To examine the L1210 growth inhibitory activities of the vitamin B12 derivatives synthesized in Examples 2 and 5, first L1210 cells adapted to albumin were inoculated at a density of 5×10^4 cells/ml into the same medium containing folic acid at 10 μM concentration, and a preculture was carried out under a humidified atmosphere of CO2 /air (5%/95%) at 37° C. for 3 days. The cells grown were centrifuged, then washed twice with the same medium containing no folic acid, to prepare an inoculum cell suspension of about 5×10^6 cells/mi. […]

Compound	coenzyme activity (in words) (diol dehydrase [1])	Ki (diol dehydrase [2])	Kcat (coenzyme activity) (diol dehydrase [1])	Kcat, activity relative to the vitamin B12 coenzyme (adenosylcobalamin) (diol dehydrase [1])	Km (diol dehydrase [3])	cells found dead (Trypan blue) [4]
2-(5,6-dimethylbenzimidazolyl)ethyladenosylcobinamide phosphoric acid [Example 6]	no coenzyme activity	52 µM	–	–	–	–
3-(5,6-dimethylbenzimidazolyl)propyladenosylcobinamide phosphoric acid [Example 7]	–	–	199 s⁻¹	59%	0.82 µM	–
3-imidazolylpropyladenosylcobinamide phosphoric acid [Example 10]	–	1 µM	3 s⁻¹	0.9%	1.1 µM	–
4-(5,6-dimethylbenzimidazolyl)butyladenosylcobinamide phosphoric acid [Example 8]	–	–	167 s⁻¹	50%	11.2 µM	–
6-(5,6-dimethylbenzimidazolyl)hexyladenosylcobinamide phosphoric acid [Example 9]	no coenzyme activity	38 µM	–	–	–	–
CN(Cc1cnc2nc(N)nc(N)c2n1)c1ccc(C(=O)N[C@@H](CCC(=O)O)C(=O)O)cc1 [MTX, methotrexate]	–	–	–	–	–	20%
C/C1=C2/[N-][C@H]([C@H](CC(N)=O)[C@@]2(C)CCC(=O)NC[C@@H](C)OP(=O)([O-])O[C@H]2[C@@H](O)[C@@H](n3cnc4cc(C)c(C)cc43)O[C@@H]2CO)[C@]2(C)N=C(/C(C)=C3N=C(/C=C4N=C1[C@@H](CCC(N)=O)C\4(C)C)[C@@H](CCC(N)=O)[C@]\3(C)CC(N)=O)[C@@H](CCC(N)=O)[C@]2(C)CC(N)=O.[CH2-][C@H]1O[C@@H](n2cnc3c(N)ncnc32)[C@H](O)[C@@H]1O.[Co] [Vitamin B12 coenzyme, adenosylcobalamin, reference compound]	–	–	337 s⁻¹	100%	0.8 µM	–
